Consider four compounds from article PMC5402990 (PLoS Neglected Tropical Diseases, 2017).

Structures can show the parent of a compound that is named as a salt. Where two headings read alike, the source gives them in different places.

Series [1] concerns EBOV/Mak. The series is described as follows: microbe, parasite or virus in culture. In kind it is cell-based, Ebola virus. The conditions noted are these: for IC50: Zaire ebolavirus.
The test system of series [2] is MARV. Description: organism not typed. In kind it is cell-based, Marburg virus.
Series [3] concerns EBOV VLP trafficking in BSC-1 cells. In kind it is cell-based, Grivet monkey.
The subject of series [4] is EBOV GP VLPs. In kind it is cell-based, Ebola virus.
Series [5] deals with EBOV trVLPs. Format: cell-based, Ebola virus.
In series [6] the test system is endosome acidification in BSC-1 cells. In kind it is cell-based, Grivet monkey.
Series [7] has as its system cathepsin B and L. Format: cell-based, Grivet monkey. The conditions noted are these: pH 5.
For series [8], the system named is cholesterol levels in endolysosomes of BSC-1 cells. Format: cell-based, Grivet monkey.
For series [9], the system named is Huh 7 cells. The following applies: human.
The conditions of series [10]: mouse, in vivo.
Series [11] is described as follows: in vivo. The following applies: mouse, ip, 10 mg/kg.
Series [12] can be described thus: in vitro. The conditions noted are these: human.
Series [13] in a line: in vitro. The following applies: African green monkey.
Series [14] is described as follows: in vitro. The following applies: human. The source holds these as a separate data set.
For series [15] the following is noted: human, in vivo; cited from earlier work.

For orientation: IC50 means the point on the concentration scale where inhibition reaches its midpoint. With `CN(C)CCOc1ccc(/C(=C(/CCCl)c2ccccc2)c2ccccc2)cc1` [Toremifene citrate], the IC50 was found to be 2470 nM in series [1]; 730 nM in series [1] (Huh-7); 1670 nM in series [1] (Vero C1008); 11600 nM in [2]; 5380 nM in series [2] (Huh-7); 2360 nM in [2] (Vero C1008).

As to `COC(=O)Nc1nc2ccc(C(=O)c3cccs3)cc2[nH]1` [nocodazole, Nocodazole], the “EBOV VLP trafficking to NPC1+ endolysosomes (Manders colocalization)” value in [3] was “blocked EBOV VLP trafficking to NPC1^+ endolysosomes to a similar extent as nocodazole”.

A word on the Cmax: it is the maximum level reached in the sampled fluid or tissue. For the compound `Cc1cccc(/C=N/Nc2cc(N3CCOCC3)nc(OCCc3ccccn3)n2)c1` [Apilimod, apilimod], the “fold higher activity than the positive control, toremifene citrate” value in series [1] is 6- to 247 fold. Besides, the “fold less potent in Huh 7 cells” value in series [1] is ~ 10 fold. The IC50 in [1] is 10 nM; in series [1] (48 h) it was 9 ± 1 nM; in series [1] (Huh-7), 140 nM; in series [1] (Huh-7, 48 h) it was 136 ± 40 nM; in [1] (Vero C1008), 15 to 25 nM; in series [1] (Vero C1008, 48 h) it was 25 ± 10 nM. Moreover, the IC50 in series [2] is 10 nM; in series [2] (48 h), 10 ± 4 nM; in series [2] (Huh-7, 48 h), 140 ± 50 nM; in series [2] (Vero C1008), 15 to 25 nM; in [2] (Vero C1008, 48 h) it was 15 ± 3 nM. Besides, the “fold higher activity than the positive control” value in series [2] was 38- to 1160 fold. For the same compound, the “EBOV VLP entry” value in [4] is given as “blocks EBOV VLP entry into BSC-1 cells with the same approximate dose-dependency as its effects in HEK 293T/17 cells”. In [4], the “EBOV particle (VLP) entry” value is given as “blocked”. Besides, in series [5], the “EBOV particle replication (trVLP infection)” value was “blocked”. Also, the “EBOV VLP trafficking to NPC1+ endolysosomes (Manders colocalization)” value in series [3] is given as “blocked EBOV VLP trafficking to NPC1^+ endolysosomes to a similar extent as nocodazole”. For the same compound, in series [3], the “VLP colocalization with EEA1+ endosomes” value is listed as “caused EBOV VLPs to accumulate in EEA1^+ endosomes”. Also, the “VLP colocalization with NPC1 over time course” value in [3] is reported as “at no point during this time course were VLPs seen to associate with NPC1^+ endolysosomes”. Further, the “effect on endosome acidification” value in series [6] is “no detectable effect on endosome acidification”. Moreover, the “effect on the activity of cathepsin B and L” value in series [7] was “no apparent direct effect”. The “cholesterol levels in endolysosomes” value in series [8] is on record as “did not cause a detectable increase”. Also, the CC50 was 500 ± 100 nM in [9], 480 ± 80 nM in series [12], more than 2000 nM in [13] and more than 2000 nM in [14]. Besides, the “Cmax relative to IC50 in hMDMs” value in series [10] is ~ 250 times. The peak level in series [11] (Cmax) was 2530 nM. Moreover, the tolerability in humans result in [15] is given as “well-tolerated”.

As for `CO/C1=C\C(C)=C\[C@@H](C)[C@@H](O)[C@@H](C)C/C(C)=C/C=C/[C@H](OC)[C@@H]([C@@H](C)[C@@H](O)[C@H](C)[C@@]2(O)C[C@@H](O)[C@H](C)[C@@H](C(C)C)O2)OC1=O` [Bafilomycin], in series [6], the “effect on endosome acidification” value is “blocks endosome acidification”.
